Converted amounts (≈) assume the structure as drawn.
Settings: buffer; pH 7.4; 6.0 h; 150.0 µM

| Compound | solubility kinetic |
| --- | --- |
| COc1ccc(CN2CCc3c(c(=O)n4ncc(C(=O)N5CCN(c6ccccc6OC)CC5)c4n3C)C2)cc1 | 14.2 µg/mL (≈ 26.1 µM) |
| O=C(N/N=C/c1ccc(O)c(O)c1)c1cc2ccccc2cc1O | 18.2 µg/mL (≈ 56.5 µM) |
| NC(=O)C1CCN(c2nccc(-c3ccc(Br)cc3)n2)CC1 | 5.39 µg/mL (≈ 14.9 µM) |
| Cc1ccc2cccc(NC(=O)c3ccc(OC(C)C)cc3)c2n1 | < 1 µg/mL |
| NC(=O)C1CCN(c2nc(-c3ccc4c(c3)OCO4)cs2)CC1 | > 49 µg/mL |
| COc1ccnc(NC(=S)N2CCN(c3ccccc3C(F)(F)F)CC2)c1 | 7 µg/mL (≈ 17.7 µM) |
| CN(C)c1ccc2cc(C(=O)N[C@@H](CCCN=C(N)CCl)C(=O)NCc3ccccc3)ccc2c1 | 52.4 µg/mL (≈ 106 µM) |
| Clc1ccc2ncc(-c3cccc(NC4CCNC4)n3)n2c1 (configuration not stated) | > 46 µg/mL |
| O=S(=O)(Nc1nccs1)c1ccc(NCc2cccc(F)c2O)cc1 | > 56 µg/mL |
| O=C(NCc1cccc(C(F)(F)F)c1)c1ccc(CN2CCCCC2)cc1 | 46.6 µg/mL (≈ 124 µM) |
| CCOC(=O)N1CCc2c(sc(NCc3sccc3C)c2C(=O)Nc2cc(Cl)ccc2OC)C1 | < 1 µg/mL |
| COc1ccccc1Nc1cnc2ccc(-c3ccc(OC)c(OC)c3)nn12 | < 1 µg/mL |
| COc1ccc(-n2c(C)c(C(C)=O)c3ccccc32)cc1 | < 1 µg/mL |
| O=C(Nc1nc(-c2ccccn2)cs1)c1cccc(-n2cnnn2)c1 | 1.1 µg/mL (≈ 3.15 µM) |
| O=C(Nc1nc(-c2ccccc2)cs1)c1ccncc1NS(=O)(=O)c1ccc(Cl)cc1 | < 1 µg/mL |
| O=[S+]([O-])(Nc1ccccc1)c1ccc(NCc2cccc(C(F)(F)F)c2F)cc1 | 1.11 µg/mL (≈ 2.62 µM) |
| O=C([C@H](Cc1ccc(O[S+](=O)([O-])c2cccc3cnccc23)cc1)N[S+](=O)([O-])c1cccc2cnccc12)N1CCN(Cc2ccccc2)CC1 | < 1 µg/mL |
| COc1cc2c(C(=O)N3CCN(c4cccc(C(F)(F)F)c4)CC3)cn(CC(C)C)c(=O)c2cc1OC | 4.92 µg/mL (≈ 9.5 µM) |
| COc1ccc(C)cc1Nc1c2c(nc3ccccc13)CCC2 | > 45 µg/mL |
| CC(=O)c1c(C)[nH]c(C(=O)Nc2ccc(Cl)cc2)c1C | 1.96 µg/mL (≈ 6.72 µM) |
| CC1(C)CCC(c2ccc(Cl)cc2)=C(CN2CCN(c3ccc(C(=O)NS(=O)(=O)c4ccc(N[C@H](CCN5CCOCC5)CSc5ccccc5)c(S(=O)(=O)C(F)(F)F)c4)cc3)CC2)C1 | < 1 µg/mL |
| CC(C)CC(=O)Nc1n[nH]c2c1CN(C(=O)C1CCN(C)CC1)C2(C)C | > 53 µg/mL |
| O=C(c1nc(-c2cccnc2)c2ccccn12)N1CCOCC1 | 45.2 µg/mL (≈ 147 µM) |

| Compound | solubility kinetic |
| --- | --- |
| COc1cccc(CNc2ccc(S(=O)(=O)Nc3cccc4ccncc34)cc2)c1O | < 1 µg/mL |
| O=c1cc(-c2ccc(O)c(O)c2)oc2cc(O)cc(O)c12 | > 100 µg/mL |
| COc1ncc(-c2n[nH]c3c2CC(=O)N(c2ccccc2)C3)cn1 | 5.46 µg/mL (≈ 17 µM) |
| CCN(CC)S(=O)(=O)c1ccc2oc(C(=O)Nc3ccc(Br)cc3F)c(C)c2c1 | < 1 µg/mL |
| Cn1cc2c3c(cccc31)CN(C(=O)c1ccc(F)c(Cl)c1)CC2 | < 1 µg/mL |
| COc1ccc(NS(=O)(=O)c2ccc(C)cc2)c(C(=O)Nc2nc(-c3ccccc3)cs2)c1 | < 1 µg/mL |
| CC1=C(C(=O)Nc2nc3ccccc3s2)C(c2[nH]ncc2Cl)N=C(Nc2nc3ccccc3o2)N1 (configuration not stated) | < 1 µg/mL |
| CC1(C)CCC(CN2CCN(c3ccc(C(=O)NS(=O)(=O)c4ccc(NCC5CCOCC5)c([N+](=O)[O-])c4)c(Oc4cnc5[nH]ccc5c4)c3)CC2)=C(c2ccc(Cl)cc2)C1 | < 1 µg/mL |
| COC(=O)CNC(=O)c1nc(-c2ccc(Cl)nc2)c2cnccn12 | > 61 µg/mL |
| Cc1cn2c(N)c(Cl)cc(C(=O)NCC3CCN(CC(C)C)CC3)c2n1 | 39.2 µg/mL (≈ 104 µM) |
| O=C(Nc1ncc(Cc2ccc(C(F)(F)F)cc2)s1)c1ccc(-c2ccccc2[N+](=O)[O-])o1 | < 1 µg/mL |
| CN(C)C(=O)c1cc2cnc(Nc3ccc(N4CCNCC4)cn3)nc2n1C1CCCC1 | > 64 µg/mL |
| CN(Cc1ccc(/C=C/C(=O)NO)cc1)CC12CC3CC(CC(C3)C1)C2 | > 35 µg/mL |
| C=CC(=O)Nc1cccc(Oc2nc(Nc3ccc(N4CCN(C)CC4)cc3)ncc2Cl)c1 | < 1 µg/mL |
| Cc1ccc(-n2ncc3c(NCCCN(C)C)ncnc32)cc1Cl | > 51 µg/mL |
| Fc1cnc(-c2ccccc2C(F)F)nc1NCC1CCN(c2cnccn2)C1 (configuration not stated) | 42.2 µg/mL (≈ 105 µM) |
| CCCc1ccc(NC(=O)c2ccc3c(c2)NC(=O)CS3)cc1 | < 1 µg/mL |
| CCOc1ccc(NC(=O)CC2C(=O)N(c3ccc(F)cc3)C(=O)N2CCc2sccc2C)cc1 (configuration not stated) | < 1 µg/mL |
| CN1C(=O)CN=C(c2ccccc2Cl)c2cc(Cl)ccc21 | > 47 µg/mL |
| Nc1ccc(-c2cccc3c(=O)cc(N4CCOCC4)oc23)cc1 | > 48 µg/mL |
| CCc1ccc(C2Sc3ccccc3NC3=C2C(=O)c2ccccc23)cc1 (configuration not stated) | < 1 µg/mL |
| c1ccc(Nc2cc3c(cn2)CN(Cc2ccc4[nH]ccc4c2)CCN3)cc1 | 30.6 µg/mL (≈ 82.8 µM) |
| CC(C)=CCNc1ncnc2nc[nH]c12 | > 30 µg/mL |

| Compound | solubility kinetic |
| --- | --- |
| O=S(=O)(Nc1nccs1)c1ccc(NCc2cccc(Cl)c2Cl)cc1 | < 1 µg/mL |
| COc1ccc(-n2cnc3cc(C(=O)N4CCCCC4)ccc32)cc1 | > 50 µg/mL |
| NC(=O)C1CCN(c2nc(-c3ccc4c(c3)OCCCO4)cs2)CC1 | 34.7 µg/mL (≈ 96.4 µM) |
| Cc1cc(-c2nnc3n2CCCCC3)c(C)n1-c1ccc(Br)cc1 | 27.4 µg/mL (≈ 71.1 µM) |
| CNc1nc(-c2cccc3ccccc23)ccc1C#N | < 1 µg/mL |
| CCOC(=O)C1(Cc2ccccc2C(F)(F)F)CCN(C2CCN(C(C)C)CC2)CC1 | 55 µg/mL (≈ 125 µM) |
| Cn1nnnc1Sc1ncnc2scc(-c3cccc(S(C)(=O)=O)c3)c12 | 44.8 µg/mL (≈ 111 µM) |
| CN(C)C(=O)c1nc(-c2ccc(Cl)nc2)c2ccccn12 | 27.6 µg/mL (≈ 91.8 µM) |
| CC(C)c1ccc2oc3nc(N)c(C(=O)O)cc3c(=O)c2c1 | > 44 µg/mL |
| COc1ccc(CNC(=O)c2cnc3ccccc3n2)cc1 | 36.1 µg/mL (≈ 123 µM) |
| O=C(Nc1ccccc1-c1cn2c(CN3CCNCC3)csc2n1)c1cnc2ccccc2n1 | 4.56 µg/mL (≈ 9.71 µM) |
| CCn1c(=O)cc(OCC(=O)N2CCN(c3cccc(Cl)c3)CC2)c2ccccc21 | 2.64 µg/mL (≈ 6.2 µM) |
| Cc1cc(Nc2ccc(Br)c(C)c2)n2nc(C)nc2n1 | 30.9 µg/mL (≈ 93 µM) |
| O=c1[nH]c(C2CCCN(CC3CCCCC3)C2)nn1-c1ccc(Cl)cc1 (configuration not stated) | < 1 µg/mL |
| COCCCOc1ccnc(CS(=O)c2nc3ccccc3[n-]2)c1C (configuration not stated) | 19.2 µg/mL |
| COc1cc2c(cc1-c1c(C)noc1C)ncc1[nH]c(=O)n([C@H](C)c3ccccn3)c12 | > 61 µg/mL |
| CC1=C(C(=O)Nc2nncs2)C(c2nn(C)cc2Cl)N=C(Nc2nc3ccccc3o2)N1 (configuration not stated) | 16.3 µg/mL (≈ 34.6 µM) |
| O=c1c2ccccc2nc(/C=C/c2cccnc2)n1Cc1ccccc1 | 1.8 µg/mL (≈ 5.29 µM) |
| O=C(/C=C/c1cn(CC(O)CN2CCCCCC2)c2ccccc12)c1ccc(Br)cc1 (configuration not stated) | < 1 µg/mL |
| CCOC(=O)Nc1ccc(NCc2ccc(F)cc2)nc1N | 8.21 µg/mL (≈ 27 µM) |
| O=C1CCCCc2cc(O)c(O)cc21 | > 28 µg/mL |
